The test system of data set [1] is IPEC-J2 cells. The class given is cell-based, porcine. The conditions noted are these: IPEC-J2; ratio of IC50 to GM. How it is done:
(§1) The MTT (3-[4,5 dimethylthiozol-2-yl]-2,5-diphenylterazoliumbromide) dye was selected to analyze the cytotoxicity of peptides against the murine macrophage cell RAW 264.7 (National Collection of Authenticated Cell Cultures, Shanghai, China), human embryonic kidneys (HK293T), and the porcine intestinal epithelial cells (IPEC-J2) as in our previously study ([Li et al., 2020]). In short, the cells (10^4 cells/well) were seeded into 96-well plates and were cultivated overnight. Then the peptides with different final concentration (2μM, 4μM, 8μM, 16μM, 32μM, 64μM, and 128μM) were introduced into the plate and challenged with cells for 24h. After overnight incubation, the 50μl MTT (0.5mg/ml) was added into the cell cultures for 4h. Then the plate was centrifuged to discard the supernatants and obtain the formazan crystals. The DMSO (dimethyl sulfoxide) was employed as a solvent to dissolve the formazan crystals on the bottom of the plate and the optical density was read at 492nm with a microplate reader.

Data set [2] has as its system S.aureus 25923. The data set is classed as cell-based, Staphylococcus aureus ATCC 25923. The conditions noted are these: 25923. From the text: (§2) The tested strains were kindly provided by the laboratory of Veterinary Microbiology and Immunology, the College of Veterinary Medicine, Northeast Agricultural University (gram-negative bacteria, Salmonella enterica serovar typhimurium C77-31, Salmonella typhimurium ATCC 14028, Escherichia coli ATCC 25922, Pseudomonas aeruginosa ATCC 27853 and gram-positive bacteria, Staphylococcus aureus ATCC 29213, Staphylococcus aureus ATCC 43300, Staphylococcus epidermidis ATCC 12228, Staphylococcus aureus ATCC 25923).
(§3) The famous microtiter dilution, National Committee for Clinical Laboratory Standards, was adopted to measure the antimicrobial ability of the engineering peptides ([Chou et al., 2016]). In brief, the 50μl with serial dilution was incubated with the same volume bacteria (1×10^5CFU/ml in midi-logarithmic phase) in a 96-well plate 18–24h at 37°C. The positive control was the bacteria treated with culture medium and the negative control was merely culture medium. The MICs (minimum inhibitory concentrations) were defined as the lowest concentration of peptides that prevented the production of visible turbidity ([Tossi et al., 2000]).

Data set [3] has as its system Pseudomonas aeruginosa ATCC 27853. Put plainly: Subcutaneous abscess model.
Description: The in vivo antimicrobial performance of peptides was assessed by the treatment effect of the subcutaneous bacterial abscess model ([Pletzer et al., 2017]). In brief, 24 female ICR mice (weighted 18–20g, WeiTonglihua Co., Ltd. (Beijing)) were divided into four groups and each group contained 6 mice (n=6). […] Then, the Pseudomonas aeruginosa ATCC 27853 cells (100μl, 10^8CFU/ml) were injected into the subcutaneous layer of the dorsum skin. […] The non-infected mice served as a control, which was infected and treated with saline.
The therapeutic effect of peptides was further evaluated by colony counting, and the appearance and the level of inflammatory cytokine ([Tan et al., 2020]). The appearance of abscesses was taking photos and the area of dermonecrotic tissue was measured and calculated with calipers at Day 3. The infected skin on the back of the mouse was harvested entirely and homogenized with saline at Day 3. The homogenate of abscess was spread on the MHA plates and cultivated for 18–24h at 37°C. Then the bacterial colony was counted for data analysis. The serum was collected for proinflammatory cytokines (TNF-α, IL-1α, IL-1β, and IL-2) tests at Day 3. The cytokine levels were determined by commercial ELISA kits (Nanjing Jiancheng Bioengineering Institute, Nanjing, China).
The histopathology of abscesses lesions was further analyzed by hematoxylin/eosin (HE) staining (Aladdin, Shanghai, China). The tissue samples at Day 3 were excised and fixed in 4% paraformaldehyde solution. In addition, the cell nuclei were stained blue and the cytoplasm was stained pink.
For data set [4], the system named is P.aeruginosa 27853. The data set is classed as cell-based, Pseudomonas aeruginosa ATCC 27853. The conditions noted are these: 27853.
From the text: as §2, §3

Data set [5] concerns P. aeruginosa ATCC 27853. The data set is described as follows: Time-kill curve. The data set is classed as cell-based, Pseudomonas aeruginosa ATCC 27853. As to conditions: 1×10^5CFU/ml, colony counting on MHA, mean of three assays. How it is done: The logarithmic phase bacterial cells (P. aeruginosa ATCC 27853 and S. aureus ATCC 29213) were harvested and diluted to 1×10^5CFU/ml ([Dou et al., 2017]). The testing peptides at different concentrations (1×MIC, 2×MIC, and 4×MIC) were challenged with bacteria at a series of time intervals (0, 5, 10, 30, 60, and 120min). Then the reaction system was diluted several times and plated on Mueller-Hinton agar (MHA, AoBoX, Shanghai, China) plates. The plates were incubated 24h at 37°C in order to count the bacterial colonies. The data were the means of three times independent assays.

Data set [6] is described as follows: CD spectrum, secondary structure. The class given is physicochemical. As to conditions: 150μM peptide. How it is done: The circular dichroism (CD) spectrum was further determined by analysis the secondary structure of peptides in different membrane-mimic environments ([Dong et al., 2014b]). The two totally different mimic environments were 10mM PBS and 50% TFE solution and the final concentration of peptides was fixed at 150μM Then the samples were transferred into a rectangular quartz cuvette (1mm path length) and further underwent the scanning of J-820 spectropolarimeter (Jasco, Tokyo, Japan) at the speed of 50nm/min. The wavelengths ranged from 190 to 250nm and were recorded to plot the observed ellipticity curve. The observed value at each time point was the average of three scans. The results were presented of mean residue ellipticity, which was calculated from the observed ellipticity as follows. θM=θobs⋅1000/(c⋅l⋅n); ([Zhu et al., 2014a])

In data set [7] the test system is E. coli 25922. The data set is classed as cell-based, Escherichia coli ATCC 25922.
From the text: as §2

The subject of data set [8] is P. aeruginosa ATCC 27853 cells. The data set is described as follows: Outer membrane permeabilization, NPN uptake. The class given is cell-based, Pseudomonas aeruginosa ATCC 27853. How it is done: The outer membrane permeabilization of peptides was observed by monitoring the fluorescence change of dye 1-N-phenylnaphthylamine (NPN; Dong et al., 2014c). The 10μm NPN (Sigma-Aldrich, Shanghai, China) was first incubated with the P. aeruginosa ATCC 27853 cells (OD600=0.2, suspended in 5mM HEPES buffer supplied with 5mM glucose) for 30min. Afterward, the mixture was subjected to the detection of fluorescence, which served as the background at the excitation wavelength (λ=350nm) and the emission wavelength (λ=420nm). Then the peptides with various concentrations (1μM, 2μM, 4μM, 8μM, 16μM, 32μM, and 64μM) were added into the mixture and the fluorescence was monitored until the value was tended to stable. The %NPN uptake against 10μg/ml polymyxin B was calculated to analyze the outer membrane permeability of peptides.

For data set [9], the system named is S.aureus 29213. The class given is cell-based, Staphylococcus aureus ATCC 29213. The conditions noted are these: 29213.
From the text: as §2, §3

The test system of data set [10] is MRSA 43300. The class given is cell-based, Staphylococcus aureus ATCC 43300. The conditions noted are these: microtiter dilution, 1×10^5CFU/ml, 18–24h at 37°C, visible turbidity.
From the text: as §2, §3

Data set [11] has as its system S.typhimurium 14028. The data set is classed as cell-based, Salmonella typhimurium ATCC 14028.
From the text: as §2

Data set [12] deals with HEK 293T cells. The data set is classed as cell-based, human. As to conditions: ratio of IC50 to GM. How it is done:
as §1

Data set [13] has as its system panel of gram-negative and gram-positive bacteria. The conditions noted are these: over the eight strains of Table 2. How it is done:
as §3

In data set [14] the test system is normal skin tissue. As to conditions: mouse, in vivo, sc, 5 mg/kg.
Description: The potential toxicity of peptides to normal skin tissues was further tested by TUNEL assay ([Huang et al., 2009]). […] The 100μl 100% DMSO treatment served as a positive control, which was well-known for its toxicity to induce skin necrosis. Then, the skin samples were harvested and were subjected to TUNEL assay and counterstain with 4,6-diamidino-2-phenylindole (DAPI).
Data set [15] relates to S.epidermidis 12228. The class given is cell-based, Staphylococcus epidermidis ATCC 12228.
From the text: as §2

Ends that are not written are not given here.

For the substance VKKWVKKWVKKWVKKW-NH2 [VW5], the “Therapeutic index (TI)” value in [1] worked out at 3051.34; in data set [12], 5090.03. For the same substance, the minimal inhibitory concentration (MIC) came out at 2 µM in [2]; 1 µM in data set [4]; 2 µM in data set [7]; 2 µM in [9]; 2 µM in data set [10]; 2 µM in data set [11]. The same substance yielded a minimal inhibitory concentration (MIC) in [15] of 2 µM. The “bacterial load in the abscess lesion” value in data set [3] (5mg/kg intraperitoneally twice a day, Day 3, n=6) is 12.72±2.26 ×10^9CFU/abscess. In data set [3] (5mg/kg, Day 3, ELISA, saline 95.99±4.31), the IL-1β in serum was determined as 72.36 ± 4.15 pg/mL. In [3] (5mg/kg, Day 3, ELISA, saline 99.95±4.71), this substance gave an IL-1α in serum of 79.82 ± 4.79 pg/mL. For the same substance, the TNF-α in serum in data set [3] (5mg/kg, Day 3, ELISA, saline 1020.654±51.08) was determined as 756.62 ± 39.12 pg/mL. Moreover, the IL-2 in serum in data set [3] (5mg/kg, Day 3, ELISA, saline 1492.65±48.11) worked out at 1296.25 ± 150.86 pg/mL. The “histological examination of abscess lesion, dermal tissue structures” value in data set [3] (5mg/kg, HE staining, Day 3) was “relative integrity”. Further, the “time to complete eradication of bacterial cells” value in data set [5] (2×MIC) was 10 min; in [5] (4×MIC) it was 30 min. Further, the “secondary structure (CD)” value was “unordered conformation” in data set [6] (10mM sodium phosphate buffer) and “α-helical tendency” in [6] (50% TFE). Besides, the “%NPN uptake against 10μg/ml polymyxin B” value was 9.49% in data set [8] (peptide 1μM) and 102.91% in data set [8] (peptide 64μM). In addition, in data set [13], the “GMMIC, geometric mean of the MICs” value was 1.68 µM. Also, in data set [14], the “apoptotic cells in epidermal layer (TUNEL)” value is reported as “no obvious green fluorescence”.

One may read the MIC as the least concentration at which growth counts as inhibited. Higher therefore signals weaker potency.

(Values after paper PMC8548882, “The Trp-rich Antimicrobial Amphiphiles With Intramolecular Aromatic Interactions for the Treatment of Bacterial Infection” (Frontiers in Microbiology, 2021).)
